From PubChem BioAssay (NCI) come the findings set out here.

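In this assay, cells in 96-well plates receive the compound at five concentrations for 48 hours. Endpoints are linearly interpolated between the surrounding concentrations. At the GI50, growth is halved. TGI: total growth inhibition.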 Where only a bound is given, the exact number is not on record here.

Holding throughout (assay): inhibition of tumour cell growth, NCI panel, 48 h
Assay [1] has as its system SK-MEL-2 melanoma.
Assay [2] concerns HS 578T breast.
The test system of assay [3] is SK-MEL-28 melanoma.
In assay [4] the test system is T-47D breast.
The subject of assay [5] is U251 CNS.
Assay [6] deals with EKVX NSCLC.
The subject of assay [7] is DU-145 prostate.
In assay [8] the test system is MALME-3M melanoma.
In assay [9] the test system is HCT-116 colon.
Assay [10] concerns OVCAR-3 ovarian.

As for `O=C(Nc1ccc(-n2ccc3c(NC(=O)c4ccccc4)nccc32)cc1)Nc1cccc(C(F)(F)F)c1`, the GI50 in assay [1] is 15 µM; in assay [2], 6.39 µM; in [3] it was 7.36 µM; in assay [4] it was 11.1 µM; in assay [5] it was 2.04 µM; in assay [6] it was 5.73 µM. Also, the GI50 is 4.2 µM in [7], 13.7 µM in assay [8], 2.91 µM in [9] and 2.93 µM in assay [10]. The TGI in assay [1] came to 30.3 µM; in [2], 40 µM; in assay [3] it was 21 µM; in [4], 31 µM; in [5], 10.8 µM; in assay [6] it was 22.1 µM. The TGI came out at 14.8 µM in assay [7], 31.2 µM in assay [8], 10.1 µM in assay [9] and 7.15 µM in assay [10].

As for `Cc1ccc(OCC2=NC3S/C(=C/c4ccc([N+](=O)[O-])o4)C(=O)N3N2)cc1` (stereo not given), the TGI in assay [1] is 31.7 µM; in assay [2], 89 µM; in assay [3], 30.5 µM; in [4], 5.39 µM; in [5], 29.5 µM; in [6], 24.5 µM. Also, the TGI in assay [7] was determined as 20.5 µM; in assay [8], 7.94 µM; in [9], 15.9 µM; in assay [10], 4.12 µM.

Regarding `Nc1cc(S(=O)(=O)O)cc2ccc(S(=O)(=O)O)cc12`, the TGI in assay [1], in assay [2], in assay [3], in assay [4], in assay [5] and in assay [6] was greater than 100 µM throughout. The TGI in [7], in assay [8], in [9] and in assay [10] was greater than 100 µM throughout.

Turning to `COC(=O)C1=C(OC(=O)/C=C/c2ccc(Cl)cc2)C(C(=O)OC)[C@]2(O)[C@@H](C(=O)OC)[C@H]1C[C@@H](c1ccccc1)[C@@H]2C(=O)OC` (stereo not given in full), the TGI is greater than 27.9 µM in assay [1]; 94 µM in assay [2]; greater than 100 µM in [3]; greater than 100 µM in assay [4]; greater than 100 µM in assay [5]; 53.2 µM in assay [6]. For the same compound, the TGI is greater than 100 µM in assay [7], 20.4 µM in assay [8], greater than 29.4 µM in assay [9] and greater than 100 µM in [10].

Consider `O=S(=O)(O)c1ccc2c(N=Nc3ccc(N=Nc4ccccc4)cc3)c(O)c(S(=O)(=O)O)cc2c1`, for which the TGI in assay [1], in assay [2], in assay [3], in [4], in assay [5] and in [6] was greater than 100 µM throughout. The TGI in assay [7], in [8], in [9] and in [10] was greater than 100 µM in each case.
